In PMC7736581, “Activation of the IRE1 RNase through remodeling of the kinase front pocket by ATP-competitive ligands” (Nature Communications, 2020):

What was measured:
Experiment in all cases: biochemical
Set-up in all cases: Invitrogen kinase panel: Z'Lyte activity (ATP at Km) or LanthaScreen competitive ATP-site binding, percent inhibition
[1] = target: ACVR1B (Homo sapiens, UniProt P36896)
[2] = target: MKNK1 (Homo sapiens, UniProt Q9BUB5)
[3] = target: DAPK1 (Homo sapiens, UniProt P53355)
[4] = target: InsR (Homo sapiens, UniProt P06213)
[5] = target: SGK3 (Homo sapiens, UniProt Q96BR1)
[6] = target: T1, PKC_alpha (Homo sapiens, UniProt P17252)
T1 construct: gene PRKCA

[7] = target: T2, Rsk3 (Homo sapiens, UniProt Q15349)
T2 construct: gene RPS6KA2

[8] = target: T3, Mer (Homo sapiens, UniProt Q12866)
T3 construct: gene MERTK

[9] = target: PrKX (Homo sapiens, UniProt P51817)
[10] = target: GRK3 (Homo sapiens, UniProt P35626)
[11] = target: T4, Ros (Homo sapiens, UniProt P08922)
T4 construct: gene ROS1

[12] = target: PLK3 (Homo sapiens, UniProt Q9H4B4)
[13] = target: PAK6 (Homo sapiens, UniProt Q9NQU5)
[14] = target: BrSK1 (Homo sapiens, UniProt Q8TDC3)
[15] = target: Axl (Homo sapiens, UniProt P30530)
[16] = target: PLK1 (Homo sapiens, UniProt P53350)
[17] = target: T5, CaMKI_delta (Homo sapiens, UniProt Q8IU85)
T5 construct: gene CAMK1D

[18] = target: BMPR1A (Homo sapiens, UniProt P36894)
[19] = target: EphB1 (Homo sapiens, UniProt P54762)
[20] = target: T6, FAK (Homo sapiens, UniProt Q05397)
T6 construct: gene PTK2

[21] = target: AKT1 (Homo sapiens, UniProt P31749)
[22] = target: T7, PRK1 (Homo sapiens, UniProt Q16512)
T7 construct: gene PKN1

[23] = target: T8, MRCK_alpha (Homo sapiens, UniProt Q5VT25)
T8 construct: gene CDC42BPA

[24] = target: ErbB4 (Homo sapiens, UniProt Q15303)
[25] = target: T9, PDK1(direct) (Homo sapiens, UniProt O15530)
T9 construct: gene PDPK1; direct
T9 sequence (O15530 whole entry): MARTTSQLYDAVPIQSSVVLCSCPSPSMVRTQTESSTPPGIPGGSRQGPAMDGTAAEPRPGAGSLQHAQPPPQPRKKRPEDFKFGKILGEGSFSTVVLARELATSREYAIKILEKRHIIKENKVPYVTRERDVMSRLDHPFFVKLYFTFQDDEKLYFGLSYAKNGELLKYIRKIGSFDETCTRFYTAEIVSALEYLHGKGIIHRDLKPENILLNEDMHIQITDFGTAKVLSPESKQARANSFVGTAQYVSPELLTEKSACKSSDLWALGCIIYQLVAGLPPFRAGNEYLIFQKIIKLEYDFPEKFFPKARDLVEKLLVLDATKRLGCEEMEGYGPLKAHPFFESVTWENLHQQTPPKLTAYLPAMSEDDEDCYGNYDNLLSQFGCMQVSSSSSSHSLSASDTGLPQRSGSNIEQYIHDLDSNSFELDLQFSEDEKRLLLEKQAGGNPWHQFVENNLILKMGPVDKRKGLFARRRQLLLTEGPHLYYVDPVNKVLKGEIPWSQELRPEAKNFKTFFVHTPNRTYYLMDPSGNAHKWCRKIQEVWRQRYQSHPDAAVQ

T7 sequence (Q16512 whole entry): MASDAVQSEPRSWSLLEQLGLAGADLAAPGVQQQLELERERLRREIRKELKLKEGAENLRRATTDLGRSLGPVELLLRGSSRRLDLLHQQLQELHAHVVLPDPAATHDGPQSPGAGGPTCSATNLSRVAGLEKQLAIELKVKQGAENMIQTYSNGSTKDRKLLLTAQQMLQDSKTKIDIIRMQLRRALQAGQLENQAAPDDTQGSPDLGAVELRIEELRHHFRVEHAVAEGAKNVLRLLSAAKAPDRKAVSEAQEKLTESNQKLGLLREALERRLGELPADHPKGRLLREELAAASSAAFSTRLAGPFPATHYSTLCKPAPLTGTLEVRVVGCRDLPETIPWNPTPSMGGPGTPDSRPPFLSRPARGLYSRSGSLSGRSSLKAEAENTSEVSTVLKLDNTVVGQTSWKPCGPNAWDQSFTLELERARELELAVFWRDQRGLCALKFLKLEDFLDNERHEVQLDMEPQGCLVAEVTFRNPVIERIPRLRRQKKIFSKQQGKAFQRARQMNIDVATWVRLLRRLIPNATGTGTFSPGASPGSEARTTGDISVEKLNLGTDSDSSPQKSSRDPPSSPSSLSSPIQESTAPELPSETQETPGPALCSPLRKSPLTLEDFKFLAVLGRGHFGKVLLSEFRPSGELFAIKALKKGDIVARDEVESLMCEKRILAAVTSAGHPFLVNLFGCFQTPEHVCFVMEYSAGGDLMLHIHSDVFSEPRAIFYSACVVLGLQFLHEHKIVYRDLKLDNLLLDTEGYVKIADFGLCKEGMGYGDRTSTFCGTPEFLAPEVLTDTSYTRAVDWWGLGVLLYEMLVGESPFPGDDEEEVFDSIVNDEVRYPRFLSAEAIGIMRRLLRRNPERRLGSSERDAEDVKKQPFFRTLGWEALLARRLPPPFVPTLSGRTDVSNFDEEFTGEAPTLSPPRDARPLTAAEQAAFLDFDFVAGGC
Sequence of ErbB4 (Q15303 whole entry): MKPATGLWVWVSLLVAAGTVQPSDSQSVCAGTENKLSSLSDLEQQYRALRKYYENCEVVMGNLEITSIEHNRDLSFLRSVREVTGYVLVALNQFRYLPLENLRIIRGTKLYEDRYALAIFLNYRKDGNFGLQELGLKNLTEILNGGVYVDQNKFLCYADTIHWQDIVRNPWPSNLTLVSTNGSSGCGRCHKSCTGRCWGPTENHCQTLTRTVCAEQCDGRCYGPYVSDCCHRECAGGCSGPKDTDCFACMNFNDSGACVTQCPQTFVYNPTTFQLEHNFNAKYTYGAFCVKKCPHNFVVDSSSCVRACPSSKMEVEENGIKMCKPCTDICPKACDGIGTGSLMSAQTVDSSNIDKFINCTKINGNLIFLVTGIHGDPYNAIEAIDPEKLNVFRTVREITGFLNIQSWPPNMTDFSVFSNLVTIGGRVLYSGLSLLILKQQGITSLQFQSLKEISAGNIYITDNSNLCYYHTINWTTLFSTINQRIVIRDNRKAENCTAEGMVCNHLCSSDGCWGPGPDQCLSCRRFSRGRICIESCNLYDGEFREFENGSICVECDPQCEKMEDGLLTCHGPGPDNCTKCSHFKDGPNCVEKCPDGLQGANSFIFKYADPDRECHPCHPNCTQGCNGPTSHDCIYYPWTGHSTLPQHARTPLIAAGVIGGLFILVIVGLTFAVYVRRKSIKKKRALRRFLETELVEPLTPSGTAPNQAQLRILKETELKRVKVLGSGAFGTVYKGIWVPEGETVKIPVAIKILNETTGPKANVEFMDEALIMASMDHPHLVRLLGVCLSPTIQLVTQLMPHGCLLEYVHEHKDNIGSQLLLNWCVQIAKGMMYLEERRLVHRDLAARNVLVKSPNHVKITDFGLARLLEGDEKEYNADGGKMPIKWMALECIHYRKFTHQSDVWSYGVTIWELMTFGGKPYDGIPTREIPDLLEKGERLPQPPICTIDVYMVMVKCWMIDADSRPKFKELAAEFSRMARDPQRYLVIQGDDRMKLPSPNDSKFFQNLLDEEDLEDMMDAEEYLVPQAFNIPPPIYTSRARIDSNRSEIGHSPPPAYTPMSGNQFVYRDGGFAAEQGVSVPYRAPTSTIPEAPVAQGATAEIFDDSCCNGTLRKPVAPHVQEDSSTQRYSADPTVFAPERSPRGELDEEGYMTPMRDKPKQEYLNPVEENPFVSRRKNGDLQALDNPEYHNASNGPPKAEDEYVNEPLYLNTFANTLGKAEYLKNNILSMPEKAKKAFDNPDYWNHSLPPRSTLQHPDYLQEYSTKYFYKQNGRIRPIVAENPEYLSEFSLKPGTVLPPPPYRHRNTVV
T3 sequence (Q12866 whole entry): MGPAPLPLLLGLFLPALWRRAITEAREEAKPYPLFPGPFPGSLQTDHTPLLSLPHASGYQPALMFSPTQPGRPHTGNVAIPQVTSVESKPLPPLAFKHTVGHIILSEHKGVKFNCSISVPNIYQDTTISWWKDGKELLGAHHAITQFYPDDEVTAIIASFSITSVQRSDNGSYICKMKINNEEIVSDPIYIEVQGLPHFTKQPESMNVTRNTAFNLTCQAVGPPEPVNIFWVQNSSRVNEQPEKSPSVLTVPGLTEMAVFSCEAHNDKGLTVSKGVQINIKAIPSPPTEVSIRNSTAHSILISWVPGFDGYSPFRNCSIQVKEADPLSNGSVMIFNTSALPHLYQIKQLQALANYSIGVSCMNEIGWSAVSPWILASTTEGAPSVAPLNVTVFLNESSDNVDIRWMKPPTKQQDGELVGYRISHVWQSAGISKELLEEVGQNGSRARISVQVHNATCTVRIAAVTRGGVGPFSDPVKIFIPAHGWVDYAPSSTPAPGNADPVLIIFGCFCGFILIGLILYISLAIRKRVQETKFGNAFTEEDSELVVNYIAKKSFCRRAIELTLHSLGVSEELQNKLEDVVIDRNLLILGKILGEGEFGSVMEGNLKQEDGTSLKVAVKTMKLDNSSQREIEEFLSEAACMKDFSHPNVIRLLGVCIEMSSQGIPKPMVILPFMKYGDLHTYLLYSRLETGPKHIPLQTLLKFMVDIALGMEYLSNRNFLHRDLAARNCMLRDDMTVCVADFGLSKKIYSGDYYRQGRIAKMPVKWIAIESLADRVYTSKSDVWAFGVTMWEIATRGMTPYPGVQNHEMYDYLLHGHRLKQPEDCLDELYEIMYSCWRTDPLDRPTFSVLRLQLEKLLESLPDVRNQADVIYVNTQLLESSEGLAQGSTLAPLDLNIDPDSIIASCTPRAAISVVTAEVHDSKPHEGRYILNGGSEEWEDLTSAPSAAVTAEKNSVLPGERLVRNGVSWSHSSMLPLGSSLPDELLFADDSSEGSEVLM
Sequence of EphB1 (P54762 whole entry): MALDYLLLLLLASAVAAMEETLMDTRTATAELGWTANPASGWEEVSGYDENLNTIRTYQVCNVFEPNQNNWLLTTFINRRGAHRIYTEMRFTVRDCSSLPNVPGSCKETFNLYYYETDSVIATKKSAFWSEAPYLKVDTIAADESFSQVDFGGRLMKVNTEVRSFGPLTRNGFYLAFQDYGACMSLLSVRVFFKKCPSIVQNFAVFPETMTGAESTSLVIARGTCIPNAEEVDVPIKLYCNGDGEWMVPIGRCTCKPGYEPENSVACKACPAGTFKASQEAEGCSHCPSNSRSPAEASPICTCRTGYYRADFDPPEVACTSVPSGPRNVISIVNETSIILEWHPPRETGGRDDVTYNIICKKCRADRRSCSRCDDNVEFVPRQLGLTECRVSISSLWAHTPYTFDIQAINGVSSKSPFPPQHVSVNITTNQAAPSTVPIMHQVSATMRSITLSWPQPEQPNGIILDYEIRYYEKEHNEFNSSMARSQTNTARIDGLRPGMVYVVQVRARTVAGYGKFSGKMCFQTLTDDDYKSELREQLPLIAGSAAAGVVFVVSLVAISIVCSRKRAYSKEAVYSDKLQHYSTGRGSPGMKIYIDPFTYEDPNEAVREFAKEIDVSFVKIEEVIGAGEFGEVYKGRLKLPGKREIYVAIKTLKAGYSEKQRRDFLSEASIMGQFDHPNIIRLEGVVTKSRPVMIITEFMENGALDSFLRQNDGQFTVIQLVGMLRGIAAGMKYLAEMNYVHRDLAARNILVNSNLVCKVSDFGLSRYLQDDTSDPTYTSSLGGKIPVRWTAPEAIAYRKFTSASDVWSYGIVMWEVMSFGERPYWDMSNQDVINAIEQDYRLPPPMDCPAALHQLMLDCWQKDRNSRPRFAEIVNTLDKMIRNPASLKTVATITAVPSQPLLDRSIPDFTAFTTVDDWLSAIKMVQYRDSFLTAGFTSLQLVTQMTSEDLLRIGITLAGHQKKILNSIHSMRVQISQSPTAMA

## CCOC(=O)Nc1cccc2c(Oc3ncccc3-c3ccnc(N[C@H]4CCCNC4)n3)c(C)ccc12 [G-1749]
[1]
  inhibition at 1 µM: 3%
[2]
  inhibition at 1 µM: 1.5%
[3]
  inhibition at 1 µM: -4%
[4]
  inhibition at 1 µM: 2.5%
[5]
  inhibition at 1 µM: -5.5%
[6]
  inhibition at 1 µM: 1.5%
[7]
  inhibition at 1 µM: 10%
[8]
  inhibition at 1 µM: 4.5%
[9]
  inhibition at 1 µM: -0.5%
[10]
  inhibition at 1 µM: -1%
[11]
  inhibition at 1 µM: 7%
[12]
  inhibition at 1 µM: -5%
[13]
  inhibition at 1 µM: 12.5%
[14]
  inhibition at 1 µM: 6.5%
[15]
  inhibition at 1 µM: -1.5%
[16]
  inhibition at 1 µM: 5%
[17]
  inhibition at 1 µM: 0%
[18]
  inhibition at 1 µM: 0%
[19]
  inhibition at 1 µM: -17%
[20]
  inhibition at 1 µM: 1.5%
[21]
  inhibition at 1 µM: -16.5%
[22]
  inhibition at 1 µM: 0%
[23]
  inhibition at 1 µM: 4.5%
[24]
  inhibition at 1 µM: 4.5%
[25]
  inhibition at 1 µM: 5%

## CC#CC(=O)Nc1cccc2c(Oc3ncccc3-c3ccnc(N[C@H]4CCCNC4)n3)c(C)ccc12 [G-7658]
[1]
  inhibition at 1 µM: -0.5%
[2]
  inhibition at 1 µM: -1%
[3]
  inhibition at 1 µM: -4%
[4]
  inhibition at 1 µM: 3%
[5]
  inhibition at 1 µM: -2%
[6]
  inhibition at 1 µM: 4%
[7]
  inhibition at 1 µM: 9%
[8]
  inhibition at 1 µM: 4.5%
[9]
  inhibition at 1 µM: -1.5%
[10]
  inhibition at 1 µM: -1.5%
[11]
  inhibition at 1 µM: 8%
[12]
  inhibition at 1 µM: -2.5%
[13]
  inhibition at 1 µM: 11%
[14]
  inhibition at 1 µM: 4.5%
[15]
  inhibition at 1 µM: -1%
[16]
  inhibition at 1 µM: 6%
[17]
  inhibition at 1 µM: 0.5%
[18]
  inhibition at 1 µM: 2%
[19]
  inhibition at 1 µM: -11.5%
[20]
  inhibition at 1 µM: 1.5%
[21]
  inhibition at 1 µM: -13.5%
[22]
  inhibition at 1 µM: -1.5%
[23]
  inhibition at 1 µM: 5%
[24]
  inhibition at 1 µM: 11.5%
[25]
  inhibition at 1 µM: 3.5%
